Laboratory results taken from PMC8154578, “Sustainable Drug Discovery of Multi-Target-Directed Ligands for Alzheimer’s Disease” (Journal of Medicinal Chemistry, 2021).

Key:
[1] = test system: IL-1β release in LPS-activated BV-2 cells; test: Secretion of IL-1β in activated BV-2 cells (ELISA); type: cell-based, murine; settings: 0.1 μM for 24 h, then 100 ng/mL LPS for 24 h, compared to LPS-treated cells
[2] = test system: TNF-α, IL-1β, iNOS and COX-2 mRNA in LPS-induced BV-2 cells; test: Expression of proinflammatory cytokines and enzymes in LPS-induced BV-2 cells (real-time PCR); type: cell-based, murine; settings: 0.1 μM for 24 h, then 100 ng/mL LPS for 24 h, compared to LPS
[3] = test system: RAW264.7 murine macrophage cell line; parameters: method as in PMID 29890972; settings: 50 μM; cited from earlier work

Structure (SMILES) | release of IL-1β in the culture medium [1] | COX-2 mRNA expression [2] | IL-1β mRNA expression [2] | TNF-α mRNA expression [2] | iNOS mRNA expression [2] | expression of TNF-α, iNOS, COX-2, NF-κB, IL-1β, and IL-6 [3]
COC(=O)c1c(CCCCCCCCNc2c3c(nc4ccccc24)CCCC3)cccc1OC [Compound 5, Methyl 2-Methoxy-6-(8-((1,2,3,4-tetrahydroacridin-9-yl)amino)octyl)benzoate] | significantly decrease | significantly downregulated | significantly downregulated | not TNF-α | significantly downregulated | –
CCCCCCCCCCCCCCCc1cccc(O)c1C(=O)O [Compound 1a, reference compound] | – | reduced | reduced | reduced only the expression of IL-1β and COX-2 | reduced only the expression of IL-1β and COX-2 | significantly reduce
COC(=O)c1c(CCCCCCCCNc2c3c(nc4cc(Cl)ccc24)CCCC3)cccc1OC [Compound 6, Methyl 2-(8-((6-Chloro-1,2,3,4-tetrahydroacridin-9-yl)amino)octyl)-6-methoxybenzoate] | significantly decrease | significantly reduce | significantly reduce | significantly reduce | significantly reduce | –
